For data set [1] the following is noted: 298.15 K; 101.33 kPa; Liquid; Vibrating tube method.
Data set [2] is described as follows: excess molar enthalpy (molar enthalpy of mixing); xn = mol fraction of the nth substance listed. Particulars: 298.15 K, 101 kPa, Liquid, Calvet calorimetry.

± gives the expanded uncertainty stated by the source.

Turning to `CCCCCC(C)=O` [2-heptanone], the mass density in data set [1] worked out at 811.162 ± 0.24 kg/m3.
Same read-out and setting: as for `CC(C)=O` [acetone], the figure is 785.094 ± 0.13 kg/m3; as for `CCC(C)=O` [butanone], 799.969 ± 0.15 kg/m3.
Turning to `CCCCNCCCC` [dibutylamine], the mass density in data set [1] came to 755.528 ± 0.16 kg/m3.
As for `CCCCNCCCC` [dibutylamine] + CC(C)=O, the excess molar enthalpy in data set [2] (x1 = 0.1101) is 0.106 ± 0.00239 kcal/mol; in data set [2] (x1 = 0.2103), 0.165 ± 0.00359 kcal/mol; in data set [2] (x1 = 0.2999), 0.204 ± 0.0043 kcal/mol; in data set [2] (x1 = 0.398), 0.22 ± 0.00478 kcal/mol; in data set [2] (x1 = 0.4977), 0.224 ± 0.00478 kcal/mol; in data set [2] (x1 = 0.6088), 0.206 ± 0.00454 kcal/mol. In addition, the excess molar enthalpy was 0.181 ± 0.00382 kcal/mol in data set [2] (x1 = 0.6999), 0.143 ± 0.00311 kcal/mol in data set [2] (x1 = 0.79) and 0.0827 ± 0.00191 kcal/mol in data set [2] (x1 = 0.8913).
`CCCCNCCCC` [dibutylamine] + CCC(C)=O: the excess molar enthalpy was found to be 0.0655 ± 0.00143 kcal/mol in data set [2] (x1 = 0.1142); 0.102 ± 0.00215 kcal/mol in data set [2] (x1 = 0.2078); 0.128 ± 0.00287 kcal/mol in data set [2] (x1 = 0.2985); 0.144 ± 0.00311 kcal/mol in data set [2] (x1 = 0.3978); 0.148 ± 0.00311 kcal/mol in data set [2] (x1 = 0.4956); 0.142 ± 0.00311 kcal/mol in data set [2] (x1 = 0.6001). The figures for the excess molar enthalpy in data set [2] (x1 = 0.693), in data set [2] (x1 = 0.7846) and in data set [2] (x1 = 0.8802) were 0.126 ± 0.00263 kcal/mol, 0.0997 ± 0.00215 kcal/mol and 0.0645 ± 0.00143 kcal/mol, respectively.
With `CCCCNCCCC` [dibutylamine] + CCCC(C)=O, the excess molar enthalpy in data set [2] (x1 = 0.1111) was determined as 0.0406 ± 0.000956 kcal/mol; in data set [2] (x1 = 0.2106), 0.0684 ± 0.00143 kcal/mol; in data set [2] (x1 = 0.3072), 0.0908 ± 0.00191 kcal/mol; in data set [2] (x1 = 0.3973) it was 0.102 ± 0.00215 kcal/mol; in data set [2] (x1 = 0.4942), 0.108 ± 0.00239 kcal/mol; in data set [2] (x1 = 0.6052), 0.104 ± 0.00239 kcal/mol. Further, the excess molar enthalpy amounted to 0.0937 ± 0.00215 kcal/mol in data set [2] (x1 = 0.6999), 0.0762 ± 0.00167 kcal/mol in data set [2] (x1 = 0.7881) and 0.0485 ± 0.0012 kcal/mol in data set [2] (x1 = 0.8848).
As for `CCCCNCCCC` [dibutylamine] + CCCCCC(C)=O, the excess molar enthalpy in data set [2] (x1 = 0.1114) amounted to 0.0206 ± 0.000478 kcal/mol; in data set [2] (x1 = 0.2189) it was 0.0392 ± 0.000956 kcal/mol; in data set [2] (x1 = 0.3057), 0.0519 ± 0.0012 kcal/mol; in data set [2] (x1 = 0.4038), 0.0607 ± 0.00143 kcal/mol; in data set [2] (x1 = 0.5087), 0.0664 ± 0.00143 kcal/mol; in data set [2] (x1 = 0.5962), 0.0664 ± 0.00143 kcal/mol. For the same molecule, the excess molar enthalpy was determined as 0.0612 ± 0.00143 kcal/mol in data set [2] (x1 = 0.7053), 0.0497 ± 0.0012 kcal/mol in data set [2] (x1 = 0.8017) and 0.033 ± 0.000717 kcal/mol in data set [2] (x1 = 0.8891).
Consider `CCCNCCC` [dipropylamine], for which, in data set [1], the mass density was determined as 733.723 ± 0.25 kg/m3.
As to `CCCNCCC` [dipropylamine] + CC(C)=O, the excess molar enthalpy in data set [2] (x1 = 0.1063) was 0.0652 ± 0.00143 kcal/mol; in data set [2] (x1 = 0.2076) it was 0.113 ± 0.00239 kcal/mol; in data set [2] (x1 = 0.3036) it was 0.14 ± 0.00311 kcal/mol; in data set [2] (x1 = 0.3982) it was 0.151 ± 0.00335 kcal/mol; in data set [2] (x1 = 0.4932), 0.153 ± 0.00335 kcal/mol; in data set [2] (x1 = 0.5821), 0.147 ± 0.00311 kcal/mol. Further, the excess molar enthalpy worked out at 0.129 ± 0.00287 kcal/mol in data set [2] (x1 = 0.6773), 0.104 ± 0.00215 kcal/mol in data set [2] (x1 = 0.7652) and 0.0707 ± 0.00167 kcal/mol in data set [2] (x1 = 0.8488).
For the molecule `CCCNCCC` [dipropylamine] + CCC(C)=O, the excess molar enthalpy was 0.037 ± 0.000956 kcal/mol in data set [2] (x1 = 0.1042); 0.0605 ± 0.00143 kcal/mol in data set [2] (x1 = 0.1978); 0.0798 ± 0.00167 kcal/mol in data set [2] (x1 = 0.3016); 0.0884 ± 0.00191 kcal/mol in data set [2] (x1 = 0.3852); 0.0949 ± 0.00215 kcal/mol in data set [2] (x1 = 0.495); 0.0946 ± 0.00215 kcal/mol in data set [2] (x1 = 0.5459). Besides, the excess molar enthalpy in data set [2] (x1 = 0.5908) was 0.0937 ± 0.00215 kcal/mol; in data set [2] (x1 = 0.6833), 0.0851 ± 0.00191 kcal/mol; in data set [2] (x1 = 0.7647) it was 0.0715 ± 0.00167 kcal/mol; in data set [2] (x1 = 0.8559) it was 0.0488 ± 0.0012 kcal/mol.
With `CCCNCCC` [dipropylamine] + CCCC(C)=O, the excess molar enthalpy was determined as 0.0208 ± 0.000478 kcal/mol in data set [2] (x1 = 0.1056); 0.0368 ± 0.000956 kcal/mol in data set [2] (x1 = 0.1981); 0.0519 ± 0.0012 kcal/mol in data set [2] (x1 = 0.3098); 0.0621 ± 0.00143 kcal/mol in data set [2] (x1 = 0.3988); 0.0672 ± 0.00143 kcal/mol in data set [2] (x1 = 0.5023); 0.0679 ± 0.00143 kcal/mol in data set [2] (x1 = 0.5922). Besides, the excess molar enthalpy in data set [2] (x1 = 0.6821) turned out to be 0.0638 ± 0.00143 kcal/mol; in data set [2] (x1 = 0.781), 0.0545 ± 0.0012 kcal/mol; in data set [2] (x1 = 0.8693), 0.0382 ± 0.000956 kcal/mol.
`CCCNCCC` [dipropylamine] + CCCCCC(C)=O: the excess molar enthalpy in data set [2] (x1 = 0.1145) is 0.0112 ± 0.000478 kcal/mol; in data set [2] (x1 = 0.212), 0.021 ± 0.000478 kcal/mol; in data set [2] (x1 = 0.3072), 0.0282 ± 0.000717 kcal/mol; in data set [2] (x1 = 0.4034) it was 0.0342 ± 0.000717 kcal/mol; in data set [2] (x1 = 0.4993), 0.0387 ± 0.000956 kcal/mol; in data set [2] (x1 = 0.6017), 0.0406 ± 0.000956 kcal/mol. Also, the excess molar enthalpy in data set [2] (x1 = 0.6872) is 0.038 ± 0.000956 kcal/mol; in data set [2] (x1 = 0.7868), 0.0327 ± 0.000717 kcal/mol; in data set [2] (x1 = 0.8796) it was 0.0229 ± 0.000478 kcal/mol.
For the molecule `CCCC(C)=O` [pentan-2-one], the mass density in data set [1] stood at 801.522 ± 0.24 kg/m3.

For the origin of these results see the NIST ThermoML archive (doi:10.1016/j.fluid.2013.01.011).
